Reference: patent US20250388553A1 (Incyte Corporation, priority 2018, published 2025)
Where a name gives a salt, the structure may show the parent alone. Read-outs that look alike come from different tables or passages of the source.

Assays:
[1] = molecular target: PI3Kγ (p110γ) Recombinant Human Protein (Homo sapiens (Human), UniProt P48736); assay: PI3K-γ scintillation proximity assay; assay type: biochemical
Excerpt: Example B. PI3K-γ Scintillation Proximity Assay
(§1) Materials: [γ-^33P]ATP (10 mCi/mL) and Wheat Germ Agglutinin (WGA) YSi SPA Scintillation Beads was purchased from Perkin Elmer (Waltham, MA). Lipid kinase substrate, D-myo-Phosphatidylinositol 4,5-bisphosphate (PtdIns(4,5)P2)D (+)-sn-1,2-di-O-octanoylglyceryl, 3-O-phospho linked (PIP2), CAS 204858-53-7, was purchased from Echelon Biosciences (Salt Lake City, UT). PI3Kγ (p110γ) Recombinant Human Protein was purchased from Life technology (Grand Island, NY). ATP, MgCl2, DTT, EDTA, MOPS and CHAPS were purchased from Sigma Aldrich (St. Louis, MO).
(§2) The kinase reaction was conducted in polystyrene 384-well Greiner Bio-one white plate from Thermo Fisher Scientific in a final volume of 25 L. Inhibitors were first diluted serially in DMSO and added to the plate wells before the addition of other reaction components. The final concentration of DMSO in the assay was 2%. The PI3Kγ assay was carried out at room temperature in 20 mM MOPS, pH 6.7, 10 mM MgCl2, 5 mM DTT and CHAPS 0.03%. Reactions were initiated by the addition of ATP, the final reaction mixture consisted of 20 µM […], 0.5 μCi [γ-^33P]ATP, 13 nM PI3Kγ. Reactions were incubated for 120 min and terminated by the addition of 40 μL SPA beads suspended in quench buffer: 163 mM potassium phosphate pH 7.8, 20% glycerol, 25 mM EDTA. The final concentration of SPA beads is 1.0 mg/mL. After the plate sealing, plates were shaken overnight at room temperature and centrifuged at 1500 rpm for 10 min, the radioactivity of the product was determined by scintillation counting on Topcount (Perkin-Elmer). IC50 determination was performed by fitting the curve of percent of the solvent control activity versus the log of the inhibitor concentration using the GraphPad Prism 6.0 software.
(§3) The compounds of the Examples were tested in the assays described in Examples A, B and C and found to have the IC50s are shown in Tables A1, A2, A3 and A4.

[2] = molecular target: PI3Kδ (p1106/p85a) Recombinant Human Protein (Homo sapiens (Human), UniProt O00329); assay: PI3Kδ scintillation proximity assay; assay type: biochemical
PI3Kδ (p1106/p85a) Recombinant Human Protein, sequence (O00329 whole entry): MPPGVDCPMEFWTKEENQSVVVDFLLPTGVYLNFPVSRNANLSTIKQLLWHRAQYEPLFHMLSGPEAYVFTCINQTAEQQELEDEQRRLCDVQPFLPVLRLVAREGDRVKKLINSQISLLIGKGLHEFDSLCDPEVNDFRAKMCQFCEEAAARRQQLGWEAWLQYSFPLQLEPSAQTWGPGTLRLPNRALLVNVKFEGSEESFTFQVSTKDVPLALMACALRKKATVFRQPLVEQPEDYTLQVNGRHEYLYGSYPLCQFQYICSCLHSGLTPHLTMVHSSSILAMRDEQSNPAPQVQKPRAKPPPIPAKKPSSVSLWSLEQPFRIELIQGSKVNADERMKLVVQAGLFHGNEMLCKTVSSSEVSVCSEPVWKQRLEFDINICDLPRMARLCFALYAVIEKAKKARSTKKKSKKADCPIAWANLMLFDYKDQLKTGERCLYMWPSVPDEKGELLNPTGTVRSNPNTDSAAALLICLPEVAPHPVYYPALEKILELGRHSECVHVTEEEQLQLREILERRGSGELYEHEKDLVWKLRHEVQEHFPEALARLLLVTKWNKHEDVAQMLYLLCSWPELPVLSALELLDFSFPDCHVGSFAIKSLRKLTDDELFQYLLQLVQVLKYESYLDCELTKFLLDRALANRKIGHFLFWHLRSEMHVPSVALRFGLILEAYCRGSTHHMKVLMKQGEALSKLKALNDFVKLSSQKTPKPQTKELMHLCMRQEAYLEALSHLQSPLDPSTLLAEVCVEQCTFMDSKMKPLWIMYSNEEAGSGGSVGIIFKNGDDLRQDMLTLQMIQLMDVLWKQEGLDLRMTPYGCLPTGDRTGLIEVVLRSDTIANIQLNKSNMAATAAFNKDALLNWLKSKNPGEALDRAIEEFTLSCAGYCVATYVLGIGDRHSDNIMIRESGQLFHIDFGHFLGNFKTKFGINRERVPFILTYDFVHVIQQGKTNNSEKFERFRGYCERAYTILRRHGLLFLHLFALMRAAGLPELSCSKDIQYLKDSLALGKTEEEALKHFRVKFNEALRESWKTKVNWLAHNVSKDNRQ
PI3Kδ (p1106/p85a) Recombinant Human Protein, sequence (P27986 whole entry partner): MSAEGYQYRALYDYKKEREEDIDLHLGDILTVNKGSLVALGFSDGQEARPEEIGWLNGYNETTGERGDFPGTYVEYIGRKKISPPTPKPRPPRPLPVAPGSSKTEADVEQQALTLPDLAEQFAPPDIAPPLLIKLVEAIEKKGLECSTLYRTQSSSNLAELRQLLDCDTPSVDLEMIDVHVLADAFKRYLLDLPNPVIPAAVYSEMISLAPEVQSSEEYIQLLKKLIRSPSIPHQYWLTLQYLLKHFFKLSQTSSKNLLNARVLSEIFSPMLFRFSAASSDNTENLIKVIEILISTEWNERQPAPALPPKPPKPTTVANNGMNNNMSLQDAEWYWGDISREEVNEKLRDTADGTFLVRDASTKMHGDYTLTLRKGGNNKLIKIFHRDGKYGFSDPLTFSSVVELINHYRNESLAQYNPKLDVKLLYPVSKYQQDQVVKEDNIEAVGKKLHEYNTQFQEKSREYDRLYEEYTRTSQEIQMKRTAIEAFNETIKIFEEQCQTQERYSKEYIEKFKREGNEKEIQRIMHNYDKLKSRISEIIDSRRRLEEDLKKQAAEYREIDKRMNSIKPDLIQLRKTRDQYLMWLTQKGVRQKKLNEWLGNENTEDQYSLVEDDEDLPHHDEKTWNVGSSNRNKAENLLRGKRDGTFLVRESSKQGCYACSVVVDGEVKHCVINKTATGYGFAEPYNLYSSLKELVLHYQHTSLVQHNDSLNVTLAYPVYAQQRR
Excerpt: Example C. PI3Kδ Scintillation Proximity Assay
as §1, with “PI3Kδ (p1106/p85a)” for “PI3Kγ (p110γ)”, “Eurofins (St Charles, MO).” for “Life technology (Grand Island, NY).”
as §2, with “25 μL.” for “25 L.”, “The PI3Kδ” for “The PI3Kγ”, “[γ-^33P]ATP, 3.4” for “[γ-^33P]ATP, 13”, “nM PI3Kδ.” for “nM PI3Kγ.”, “Topcount (PerkinElmer).” for “Topcount (Perkin-Elmer).”
as §3

[3] = Table A2, scintillation proximity assay, recombinant human p110γ
[4] = Table A2, scintillation proximity assay, recombinant human PI3Kδ
[5] = Table A1, scintillation proximity assay, recombinant human p110γ
[6] = Table A1, scintillation proximity assay, recombinant human PI3Kδ
[7] = Table A4, scintillation proximity assay, recombinant human p110γ
[8] = Table A4, scintillation proximity assay, recombinant human PI3Kδ

PI3Kγ (p110γ) Recombinant Human Protein, sequence (P48736 whole entry): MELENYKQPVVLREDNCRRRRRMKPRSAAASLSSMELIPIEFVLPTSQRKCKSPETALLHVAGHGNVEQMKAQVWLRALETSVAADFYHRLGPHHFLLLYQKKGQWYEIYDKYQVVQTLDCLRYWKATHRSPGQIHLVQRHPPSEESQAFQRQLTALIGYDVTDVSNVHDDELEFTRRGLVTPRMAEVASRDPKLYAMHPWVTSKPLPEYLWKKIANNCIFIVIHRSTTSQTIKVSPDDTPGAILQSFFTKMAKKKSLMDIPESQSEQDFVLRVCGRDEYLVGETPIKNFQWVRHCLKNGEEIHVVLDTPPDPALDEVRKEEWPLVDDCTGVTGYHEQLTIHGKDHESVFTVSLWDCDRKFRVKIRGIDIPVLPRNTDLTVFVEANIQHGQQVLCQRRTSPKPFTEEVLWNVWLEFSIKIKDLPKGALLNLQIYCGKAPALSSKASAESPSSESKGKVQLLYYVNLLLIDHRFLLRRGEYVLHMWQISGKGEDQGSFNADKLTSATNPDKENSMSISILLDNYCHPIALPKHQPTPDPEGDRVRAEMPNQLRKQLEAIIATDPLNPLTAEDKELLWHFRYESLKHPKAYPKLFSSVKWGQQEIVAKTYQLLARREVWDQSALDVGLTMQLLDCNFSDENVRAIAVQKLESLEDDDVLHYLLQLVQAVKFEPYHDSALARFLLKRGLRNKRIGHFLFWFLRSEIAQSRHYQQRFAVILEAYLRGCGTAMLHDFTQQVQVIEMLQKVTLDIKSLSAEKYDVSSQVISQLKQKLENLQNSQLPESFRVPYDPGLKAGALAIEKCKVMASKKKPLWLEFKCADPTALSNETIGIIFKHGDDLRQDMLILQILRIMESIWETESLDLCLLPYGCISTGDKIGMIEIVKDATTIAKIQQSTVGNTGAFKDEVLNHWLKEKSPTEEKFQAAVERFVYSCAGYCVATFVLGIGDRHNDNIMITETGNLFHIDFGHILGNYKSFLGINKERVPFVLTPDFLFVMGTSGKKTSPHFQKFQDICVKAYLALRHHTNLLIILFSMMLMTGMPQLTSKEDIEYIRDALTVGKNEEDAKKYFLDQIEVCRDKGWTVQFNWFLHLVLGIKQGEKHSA

Row | IC50 [1, 5] | IC50 [2, 6] | Compound | further results
1 |  |  | Cc1ccc(C(O)(C(N)=O)C(F)(F)F)cc1-c1cnc(N)c(C#CCC(C)O)n1 (centres unmarked) [Example 51, 2-(3-(5-amino-6-(4-hydroxypent-1-ynyl)pyrazin-2-yl)-4-methylphenyl)-3,3,3-trifluoro-2-hydroxypropanamide] | IC50 [1, 3]: < 100 nM; IC50 [2, 4]: < 100 nM
2 | < 100 nM | < 100 nM | Cc1ccc(C(O)(C(N)=O)C(F)F)cc1-c1cnc(N)c(C(=O)NCCC2CCOC2)n1 (centres unmarked) [Example 37, 3-amino-6-(5-(1-amino-3,3-difluoro-2-hydroxy-1-oxopropan-2-yl)-2-methylphenyl)-N-(2-(tetrahydrofuran-3-yl)ethyl)pyrazine-2-carboxamide] | 
3 | < 100 nM | < 100 nM | Cc1ccc(C(O)(C(N)=O)C(F)(F)F)cc1-c1cnc(N)c(C(=O)NCCC#N)n1 (centres unmarked) [Example 14, 3-amino-6-(5-(3-amino-1,1,1-trifluoro-2-hydroxy-3-oxopropan-2-yl)-2-methylphenyl)-N-(2-cyanoethyl)pyrazine-2-carboxamide trifluoroacetate] | 
4 |  |  | Cc1ccc(C(O)(C(N)=O)C(F)(F)F)cc1-c1cnc(N)c(N2CCN(c3ccccn3)CC2)n1 (centres unmarked) [Example 117, 2-(3-(5-amino-6-(4-(pyridin-2-yl)piperazin-1-yl)pyrazin-2-yl)-4-methylphenyl)-3,3,3-trifluoro-2-hydroxypropanamide trifluoroacetate] | IC50 [1]: < 100 nM; IC50 [2]: < 100 nM
5 | < 100 nM | < 100 nM | CCNC(=O)c1nc(-c2cc(C(O)(C(N)=O)C(F)F)ccc2C)cnc1N (centres unmarked) [Example 32, 3-amino-6-(5-(1-amino-3,3-difluoro-2-hydroxy-1-oxopropan-2-yl)-2-methylphenyl)-N-ethylpyrazine-2-carboxamide] | 
6 |  |  | Cc1ccc(C(O)(C(N)=O)C(F)(F)F)cc1-c1cnc(N)c(C#CC2CCOCC2)n1 (centres unmarked) [Example 63, 2-(3-(5-amino-6-((tetrahydro-2H-pyran-4-yl)ethynyl)pyrazin-2-yl)-4-methylphenyl)-3,3,3-trifluoro-2-hydroxypropanamide] | IC50 [1, 3]: < 100 nM; IC50 [2, 4]: < 100 nM
7 | < 100 nM | < 100 nM | Cc1ccc(C(O)(C(N)=O)C(F)(F)F)cc1-c1cnc(N)c(C(=O)NCC(O)C(F)(F)F)n1 (single isomer, unassigned) [Example 43B, 3-amino-6-(5-(3-amino-1,1,1-trifluoro-2-hydroxy-3-oxopropan-2-yl)-2-methylphenyl)-N-(3,3,3-trifluoro-2-hydroxypropyl)pyrazine-2-carboxamide] | 
8 | < 100 nM | < 100 nM | Cc1ccc(C(O)(C(N)=O)C(F)(F)F)cc1-c1cnc(N)c(C(=O)N[C@H]2CCCOC2)n1 (stereo partly drawn) [Example 10, 3-amino-6-(5-(3-amino-1,1,1-trifluoro-2-hydroxy-3-oxopropan-2-yl)-2-methylphenyl)-N-((S)-tetrahydro-2H-pyran-3-yl)pyrazine-2-carboxamide trifluoroacetate] | 
9 | < 100 nM | 100 to 500 nM | Cc1ccc(C(O)(CNC(=O)C(C)(C)O)C(F)(F)F)cc1-c1cnc(N)c(C(=O)NC(C)C)n1 (centres unmarked) [Example 41, 3-Amino-N-isopropyl-6-(2-methyl-5-(1,1,1-trifluoro-2-hydroxy-3-(2-hydroxy-2-methylpropanamido)propan-2-yl)phenyl)pyrazine-2-carboxamide trifluoroacetate] | 
10 | < 100 nM | < 100 nM | Cc1ccc(C(O)(C(N)=O)C(F)(F)F)cc1-c1cnc(N)c(C(=O)NC2CCOCC2)n1 (centres unmarked) [Example 2, 3-amino-6-(5-(3-amino-1,1,1-trifluoro-2-hydroxy-3-oxopropan-2-yl)-2-methylphenyl)-N-(tetrahydro-2H-pyran-4-yl)pyrazine-2-carboxamide trifluoroacetate] | 
11 |  |  | CNC(=O)C(O)(c1ccc(C)c(-c2cnc(N)c(-c3cnn(C)c3)n2)c1)C(F)(F)F (centres unmarked) [Example 96, 2-(3-(5-Amino-6-(1-methyl-1H-pyrazol-4-yl)pyrazin-2-yl)-4-methylphenyl)-3,3,3-trifluoro-2-hydroxy-N-methylpropanamide] | IC50 ([1]; Table A3, scintillation proximity assay, recombinant human p110γ): < 100 nM; IC50 ([2]; Table A3, scintillation proximity assay, recombinant human PI3Kδ): 100 to 500 nM
12 | < 100 nM | < 100 nM | Cc1ccc(C(O)(C(N)=O)C(F)(F)F)cc1-c1cnc(N)c(C(=O)NC23CCC(C#N)(CC2)CC3)n1 (centres unmarked) [Example 25, 3-amino-6-(5-(3-amino-1,1,1-trifluoro-2-hydroxy-3-oxopropan-2-yl)-2-methylphenyl)-N-(4-cyanobicyclo[2.2.2]octan-1-yl)pyrazine-2-carboxamide trifluoroacetate] | 
13 | < 100 nM | < 100 nM | Cc1ccc(C(O)(C(N)=O)C(F)(F)F)cc1-c1cnc(N)c(C(=O)NCC(C)(C)C#N)n1 (centres unmarked) [Example 15, 3-amino-6-(5-(3-amino-1,1,1-trifluoro-2-hydroxy-3-oxopropan-2-yl)-2-methylphenyl)-N-(2-cyano-2-methylpropyl)pyrazine-2-carboxamide trifluoroacetate] | 
14 |  |  | Cc1ccc(C(O)(C(N)=O)C(F)(F)F)cc1-c1cnc(N)c(N2CCN(c3nccnc3C#N)CC2)n1 (centres unmarked) [Example 128, 2-(3-(5-amino-6-(4-(3-cyanopyrazin-2-yl)piperazin-1-yl)pyrazin-2-yl)-4-methylphenyl)-3,3,3-trifluoro-2-hydroxypropanamide trifluoroacetate] | IC50 [1, 7]: < 100 nM; IC50 [2, 8]: < 100 nM
15 |  |  | Cc1ccc(C)c(N2CCN(c3nc(-c4cc(C(O)(C(N)=O)C(F)(F)F)ccc4C)cnc3N)CC2)c1 (centres unmarked) [Example 119, 2-(3-(5-amino-6-(4-(2,5-dimethylphenyl)piperazin-1-yl)pyrazin-2-yl)-4-methylphenyl)-3,3,3-trifluoro-2-hydroxypropanamide trifluoroacetate] | IC50 [1, 7]: < 100 nM; IC50 [2, 8]: 100 to 500 nM
16 |  |  | Cc1ccc(C(O)(C(N)=O)C(F)(F)F)cc1-c1cnc(N)c(C#CC2CC2)n1 (centres unmarked) [Example 48, 2-(3-(5-amino-6-(cyclopropylethynyl)pyrazin-2-yl)-4-methylphenyl)-3,3,3-trifluoro-2-hydroxypropanamide] | IC50 [1, 3]: < 100 nM; IC50 [2, 4]: < 100 nM
17 |  |  | CC(=O)N1CCN(c2nc(-c3cc(C(O)(C(N)=O)C(F)(F)F)ccc3C)cnc2N)CC1 (centres unmarked) [Example 114, 2-(3-(6-(4-acetylpiperazin-1-yl)-5-aminopyrazin-2-yl)-4-methylphenyl)-3,3,3-trifluoro-2-hydroxypropanamide trifluoroacetate] | IC50 [1, 7]: < 100 nM; IC50 [2, 8]: < 100 nM
18 | < 100 nM | < 100 nM | Cc1ccc(C(O)(C(N)=O)C(F)(F)F)cc1-c1cnc(N)c(C(=O)N2CCC2(C)C)n1 (centres unmarked) [Example 27, 2-(3-(5-amino-6-(2,2-dimethylazetidine-1-carbonyl)pyrazin-2-yl)-4-methylphenyl)-3,3,3-trifluoro-2-hydroxypropanamide] | 
19 | < 100 nM | < 100 nM | Cc1ccc(C(O)(C(N)=O)C(F)(F)F)cc1-c1cnc(N)c(C(=O)NC(C)(C)CO)n1 (centres unmarked) [Example 13, 3-Amino-6-(5-(3-amino-1,1,1-trifluoro-2-hydroxy-3-oxopropan-2-yl)-2-methylphenyl)-N-(1-hydroxy-2-methylpropan-2-yl)pyrazine-2-carboxamide] | 
